Source: US8680012B2, “4-phenyl-pyrane-3,5-diones,4-phenyl-thiopyrane-3,6-diones and cyclohexanetriones as novel herbicides” (Syngenta Crop Protection LLC, priority 2006, dated 2014)

What was measured:
Assay type in all cases: in vivo
Lolium perenne (LOLPE) [1] = experiment: Example A post-emergence herbicidal activity, glasshouse pot test; settings: 360 h, rate 125 g/ha, evaluated 15 days after spraying, read-out: Post-emergence activity LOLPE (100=total damage to plant; 0=no damage to plant)
Procedure: (§1) Seeds of a variety of test species were sown in standard soil in pots. After cultivation for one day (pre-emergence) or after 10 days cultivation (post-emergence) under controlled conditions in a glasshouse, the plants were sprayed with an aqueous spray solution derived from the formulation of the technical active ingredient in 0.6 ml acetone and 45 ml formulation solution containing 10.6% Emulsogen EL (Registry number 61791-12-6), 42.2% N-methylpyrrolidone, 42.2% dipropylene glycol monomethyl ether (Registry number 34590-94-8) and 0.2% X-77 (Registry number 11097-66-8). The test plants were then grown in a greenhouse under optimum conditions until, 15 days later for post-emergence and 20 days for pre-emergence, the test was evaluated (100=total damage to plant; 0=no damage to plant).
(§2) Alopecurus myosuroides (ALOMY), Avena fatua (AVEFA), Lolium perenne (LOLPE), Setaria faberi (SETFA), Digitaria sanguinalis (DIGSA), Echinochloa crus-galli (ECHCG)

[2] = system: Alopecurus myosuroides (ALOMY); experiment: as above; settings: 360 h, rate 125 g/ha, evaluated 15 days after spraying, read-out: Post-emergence activity ALOMY (100=total damage to plant; 0=no damage to plant)
Procedure: as §1, §2

Setaria faberi (SETFA) [3] = experiment: as above; settings: 360 h, rate 125 g/ha, evaluated 15 days after spraying, read-out: Post-emergence activity SETFA (100=total damage to plant; 0=no damage to plant)
Procedure: as §1, §2

[4] = system: Digitaria sanguinalis (DIGSA); experiment: as above; settings: 360 h, rate 125 g/ha, evaluated 15 days after spraying, read-out: Post-emergence activity DIGSA (100=total damage to plant; 0=no damage to plant)
Procedure: as §1, §2

Avena fatua (AVEFA) [5] = experiment: as above; settings: 360 h, rate 125 g/ha, evaluated 15 days after spraying, read-out: Post-emergence activity AVEFA (100=total damage to plant; 0=no damage to plant)
Procedure: as §1, §2

[6] = system: Echinochloa crus-galli (ECHCG); experiment: as above; settings: 360 h, rate 125 g/ha, evaluated 15 days after spraying, read-out: Post-emergence activity ECHCG (100=total damage to plant; 0=no damage to plant)
Procedure: as §1, §2

Lolium perenne (LOLPE) [7] = experiment: Example A pre-emergence herbicidal activity, glasshouse pot test; settings: 480 h, evaluated 20 days after spraying, read-out: Pre-emergence activity LOLPE (100=total damage to plant; 0=no damage to plant); for pest or weed control at 500 g/ha: rate 500 g/ha
Procedure: as §1, §2

[8] = system: Alopecurus myosuroides (ALOMY); experiment: as above; settings: 480 h, evaluated 20 days after spraying, read-out: Pre-emergence activity ALOMY (100=total damage to plant; 0=no damage to plant); for pest or weed control at 500 g/ha: rate 500 g/ha
Procedure: as §1, §2

Setaria faberi (SETFA) [9] = experiment: as above; settings: 480 h, evaluated 20 days after spraying, read-out: Pre-emergence activity SETFA (100=total damage to plant; 0=no damage to plant); for pest or weed control at 500 g/ha: rate 500 g/ha
Procedure: as §1, §2

[10] = system: Digitaria sanguinalis (DIGSA); experiment: as above; settings: 480 h, evaluated 20 days after spraying, read-out: Pre-emergence activity DIGSA (100=total damage to plant; 0=no damage to plant); for pest or weed control at 500 g/ha: rate 500 g/ha
Procedure: as §1, §2

Avena fatua (AVEFA) [11] = experiment: as above; settings: 480 h, evaluated 20 days after spraying, read-out: Pre-emergence activity AVEFA (100=total damage to plant; 0=no damage to plant); for pest or weed control at 500 g/ha: rate 500 g/ha
Procedure: as §1, §2

[12] = system: Echinochloa crus-galli (ECHCG); experiment: as above; settings: 480 h, evaluated 20 days after spraying, read-out: Pre-emergence activity ECHCG (100=total damage to plant; 0=no damage to plant); for pest or weed control at 500 g/ha: rate 500 g/ha
Procedure: as §1, §2

[13] = system: Alopecurus myosuroides (ALOMY); experiment: Example B post-emergence herbicidal activity, glasshouse pot test; settings: 312 h, rate 1000 g/ha, evaluated after 13 days, read-out: Post-emergence activity ALOMY (100=total damage to plant; 0=no damage to plant)
Procedure, shortened: (§3)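 Glasshouse pot assay: 24/16 °C, 14 h light, 65% humidity, twice-daily watering. Spray timing was 1 day after sowing (pre) or 8 days (post); vehicle acetone/water 50:50 with 0.5% Tween 20. Plants were rated 13 days after treatment, 100 meaning total damage.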

[14] = system: Amaranthus retroflexus (AMARE); experiment: as above; settings: 312 h, rate 1000 g/ha, evaluated after 13 days, read-out: Post-emergence activity AMARE (100=total damage to plant; 0=no damage to plant)
Procedure, shortened: as §3

Setaria faberi (SETFA) [15] = experiment: as above; settings: 312 h, rate 1000 g/ha, evaluated after 13 days, read-out: Post-emergence activity SETFA (100=total damage to plant; 0=no damage to plant)
Procedure, shortened: as §3

Avena fatua (AVEFA) [16] = experiment: as above; settings: 312 h, rate 1000 g/ha, evaluated after 13 days, read-out: Post-emergence activity AVEFA (100=total damage to plant; 0=no damage to plant)
Procedure, shortened: as §3

Solanum nigrum (SOLNI) [17] = experiment: as above; settings: 312 h, rate 1000 g/ha, evaluated after 13 days, read-out: Post-emergence activity SOLNI (100=total damage to plant; 0=no damage to plant)
Procedure, shortened: as §3

[18] = system: Echinochloa crus-galli (ECHCG); experiment: as above; settings: 312 h, rate 1000 g/ha, evaluated after 13 days, read-out: Post-emergence activity ECHCG (100=total damage to plant; 0=no damage to plant)
Procedure, shortened: as §3

[19] = system: Alopecurus myosuroides (ALOMY); experiment: Example B pre-emergence herbicidal activity, glasshouse pot test; settings: 312 h, rate 1000 g/ha, evaluated after 13 days, read-out: Pre-emergence activity ALOMY (100=total damage to plant; 0=no damage to plant)
Procedure, shortened: as §3

[20] = system: Amaranthus retroflexus (AMARE); experiment: as above; settings: 312 h, rate 1000 g/ha, evaluated after 13 days, read-out: Pre-emergence activity AMARE (100=total damage to plant; 0=no damage to plant)
Procedure, shortened: as §3

Setaria faberi (SETFA) [21] = experiment: as above; settings: 312 h, rate 1000 g/ha, evaluated after 13 days, read-out: Pre-emergence activity SETFA (100=total damage to plant; 0=no damage to plant)
Procedure, shortened: as §3

Avena fatua (AVEFA) [22] = experiment: as above; settings: 312 h, rate 1000 g/ha, evaluated after 13 days, read-out: Pre-emergence activity AVEFA (100=total damage to plant; 0=no damage to plant)
Procedure, shortened: as §3

Solanum nigrum (SOLNI) [23] = experiment: as above; settings: 312 h, rate 1000 g/ha, evaluated after 13 days, read-out: Pre-emergence activity SOLNI (100=total damage to plant; 0=no damage to plant)
Procedure, shortened: as §3

[24] = system: Echinochloa crus-galli (ECHCG); experiment: as above; settings: 312 h, rate 1000 g/ha, evaluated after 13 days, read-out: Pre-emergence activity ECHCG (100=total damage to plant; 0=no damage to plant)
Procedure, shortened: as §3

Row | Structure (SMILES) | pest or weed control at 125 g/ha (Lolium perenne (LOLPE) [1]) | pest or weed control at 125 g/ha [2] | pest or weed control at 125 g/ha (Setaria faberi (SETFA) [3]) | pest or weed control at 125 g/ha [4] | pest or weed control at 125 g/ha (Avena fatua (AVEFA) [5]) | pest or weed control at 125 g/ha [6] | pest or weed control at 500 g/ha (Lolium perenne (LOLPE) [7]) | pest or weed control at 500 g/ha [8] | pest or weed control at 500 g/ha (Setaria faberi (SETFA) [9]) | pest or weed control at 500 g/ha [10] | pest or weed control at 500 g/ha (Avena fatua (AVEFA) [11]) | pest or weed control at 500 g/ha [12] | also measured
1 | Cc1ccc(-c2ccc(Cl)cc2)cc1C1=C(O)COC(C)(C)C1=O (single isomer, unassigned) [Compound A-1] | 80% | 10% | 50% | 0% | 0% | 70% | 10% | 40% | 70% | 70% | 10% | 50% | 
2 | CCc1ccc(-c2ccc(Cl)cc2)cc1C1=C(O)C(C)(C)OC(C)(CC)C1=O (single isomer, unassigned) [Compound A-34] | 80% | 70% | 90% | 90% | 20% | 100% |  |  |  |  |  |  | pest or weed control at 250 g/ha (Lolium perenne (LOLPE) [7]; rate 250 g/ha): 100%; pest or weed control at 250 g/ha ([8]; rate 250 g/ha): 60%; pest or weed control at 250 g/ha (Setaria faberi (SETFA) [9]; rate 250 g/ha): 100%; pest or weed control at 250 g/ha ([10]; rate 250 g/ha): 100%; pest or weed control at 250 g/ha (Avena fatua (AVEFA) [11]; rate 250 g/ha): 50%; pest or weed control at 250 g/ha ([12]; rate 250 g/ha): 100%
3 | CCc1ccc(-c2ccc(Cl)cc2)cc1C1=C(O)COCC1=O [Compound A-2] | 0% | 20% | 80% | 50% | 20% | 80% | 60% | 50% | 70% | 10% | 50% | 100% | 
4 | Cc1ccc(-c2ccc(Cl)cc2)cc1C1=C(O)COCC1=O [Compound A-3] | 0% | 0% | 60% | 40% | 0% | 70% | 20% | 30% | 50% | 70% | 20% | 70% | 
5 | Cc1ccc(-c2ccc(Cl)cc2)cc1C1=C(O)C(C)(C)OC(C)(C)C1=O [Compound A-5] | 70% | 70% | 80% | 100% | 70% | 100% | 50% | 60% | 100% | 100% | 50% | 100% | 
6 | Cc1ccc(-c2ccc(F)cc2)cc1C1=C(O)C(C)(C)OC(C)(C)C1=O [Compound A-9] | 30% | 50% | 80% | 80% | 0% | 80% | 20% | 20% | 60% | 50% | 30% | 50% | 
7 | CCc1ccc(-c2ccc(Cl)cc2)cc1C1=C(OC(=O)C(C)(C)OC)C(C)(C)OC(C)(C)C1=O [Compound D-20] |  |  |  |  |  |  |  |  |  |  |  |  | pest or weed control at 1000 g/ha [13]: 100%; pest or weed control at 1000 g/ha [14]: 20%; pest or weed control at 1000 g/ha (Setaria faberi (SETFA) [15]): 100%; pest or weed control at 1000 g/ha (Avena fatua (AVEFA) [16]): 90%; pest or weed control at 1000 g/ha (Solanum nigrum (SOLNI) [17]): 0%; pest or weed control at 1000 g/ha [18]: 100%; pest or weed control at 1000 g/ha [19]: 30%; pest or weed control at 1000 g/ha [20]: 0%; pest or weed control at 1000 g/ha (Setaria faberi (SETFA) [21]): 90%; pest or weed control at 1000 g/ha (Avena fatua (AVEFA) [22]): 0%; pest or weed control at 1000 g/ha (Solanum nigrum (SOLNI) [23]): 0%; pest or weed control at 1000 g/ha [24]: 60%
8 | CCc1ccc(-c2ccc(Cl)cc2)cc1C1=C(OC(=O)CCOC)C(C)(C)OC(C)(C)C1=O [Compound D-21] |  |  |  |  |  |  |  |  |  |  |  |  | pest or weed control at 1000 g/ha [13]: 100%; pest or weed control at 1000 g/ha [14]: 10%; pest or weed control at 1000 g/ha (Setaria faberi (SETFA) [15]): 100%; pest or weed control at 1000 g/ha (Avena fatua (AVEFA) [16]): 90%; pest or weed control at 1000 g/ha (Solanum nigrum (SOLNI) [17]): 30%; pest or weed control at 1000 g/ha [18]: 100%; pest or weed control at 1000 g/ha [19]: 90%; pest or weed control at 1000 g/ha [20]: 0%; pest or weed control at 1000 g/ha (Setaria faberi (SETFA) [21]): 100%; pest or weed control at 1000 g/ha (Avena fatua (AVEFA) [22]): 50%; pest or weed control at 1000 g/ha (Solanum nigrum (SOLNI) [23]): 0%; pest or weed control at 1000 g/ha [24]: 100%
